According to US10351613B2, “Polypeptide for inhibition of tumor” (G-Bio Pharma Tech Co., Ltd., priority 2015, dated 2019):
≈ marks a conversion by molar mass, not a printed value. Read-outs that look alike come from different tables or passages of the source. Residues, ends and D or L forms follow the SMILES beside them.

B1: endostar: marketed recombinant human endostatin drug, SEQ ID NO: 10 (protein)
chain: MGGSHHHHHHSHRDFQPVLHLVALNAPLSGGMRGIRGADFQCFQQARAVGLAGTFRAFLSSRLQDLYSIVRRADRAAVPIVNLKDELLFPSWEALFSGSEGPLKPGARIFSFDGKDVLRHPTWPQKSVWHGSDPNGRRLTESYCETWRTEAPSATGQASSLLGGRLLGQSAASCHHAYIVLCIENSFMTASK
modifications: Recombinant human endostatin drug, endostar
B2: endostatin: Recombinant human endostatin, SEQ ID NO: 1, commercially available (protein, listed as Homo sapiens)
chain: HSHRDFQPVLHLVALNSPLSGGMRGIRGADFQCFQQARAVGLAGTFRAFLSSRLQDLYSIVRRADRAAVPIVNLKDELLFPSWEALFSGSEGPLKPGARIFSFDGKDVLRHPTWPQKSVWHGSDPNGRRLTESYCETWRTEAPSATGQASSLLGGRLLGQSAASCHHAYIVLCIENSFMTASK

What was measured:
[1] = system: Human liver cancer BEL7404 tumor model; type: in vivo; settings: for Tumor inhibitor rate (%): BEL7404, day 21, polypeptides 15 mg/kg sc 2 times per day 21 days, endostatin/endostar 50 mg/kg sc, CTX 30 mg/kg ip 7 days
Protocol: In vitro cultured tumor cells in exponential phase and in good state were formulated to a 100 μl cell suspension containing 5×10^6 tumor cells. The suspension was subcutaneously inoculated to nude mice. Well-grown solid tumors were obtained 15 days later and cut into uniform pieces of about 3 mm under sterile condition. Each nude mouse was inoculated by one piece through a trocar. Mice were re-grouped according the tumor size 10-14 days after inoculation and animals having too large and too small tumor were excluded from the test. The average tumor volume for each group was basically identical. Test drugs were administered to each group according to the experimental protocol. The major axis (a) and minor axis (b) of the tumor were measured twice a week. Animals were sacrificed at the end of the test. The tumor was taken out, weighed and photos were taken. Tumor volume (TV)=½×a×b^2; Relative tumor volume (RTV)=Vt/Vo, wherein Vo is the tumor volume measured before grouping (one day before administration of the test drug), and Vt is the tumor volume measured at each time. Tumor inhibition rate (%)=(1−T/C)×100%, wherein T is the average tumor volume of the treatment group and C is the average tumor volume of the negative control group.
The amino acid sequence of recombination endostatin (“endostatin”) was set forth in SEQ ID NO: 1, and the amino acid sequence of the marketed drug Endostar (“endostar”) was set forth in SEQ ID NO: 10. Human liver cancer BEL7404 tumor model was constructed according to the method described in Example 10. The test contained 6 groups, with 6 animals in each group, except for the negative control group which contained 9 animals. The molar dose of the polypeptides was basically equal to the molar dose of endostatin. The results are shown in FIGS. 11a and 11b and the following Table.

[2] = system: Human Umbilical Vein Endothelial Cell (HUVEC); type: cell-based; settings: for biological activity compared with P2: inhibition of HUVEC and HepG2
Protocol: 20 cm umbilical cord adjacent to fetus was taken, cleaned by washing, ligated at both ends, placed into 150 ml preservation solutions for umbilical cord, and stored in a 4° C. refrigerator for digestion for 6 hours. The umbilical cord was inspected to remove the damaged portion. The umbilical vein was thoroughly cleaned by washing and then 10 ml collagenase solution was injected. Then the umbilical vein was transferred to a 37° C. incubator for digestion for 15 minutes. The umbilical cord was removed and the digested solution was recovered. The digested solution was washed by PBS and centrifuged. After centrifugation, the cells were culture by re-suspension.
(§1) Inhibition of cell growth was detected by a MTT method, which is based on the principle that succinate dehydrogenase in the mitochondria of the live cells could reduce the exogenous MTT (3-(4,5-dimethyl-2-thiazolyl)-2,5-diphenyl-tetrazolium bromide) to a […] Formazan which is a blue-violet crystal, and precipitates in the cells, while the death cells could not reduce MTT. DMSO could dissolve Formazan in the cells. Absorbance value of the solution was determined at 490/570 nm by microplate reader, which could indirectly indicate the amount of the live cells. The amount of the crystal from MTT is proportional to the amount of the cells within a certain range of cell number. The supernate from the HUVEC or tumor cells in exponential phase was removed and the cells were washed by PBS once. 1 ml 0.25% trypsin (4° C.) was added for digestion at 37° C. for 2 min. Then the supernate was added for neutralization and the cells were dispersed to form a suspension and the suspension was centrifuged at 1000 rpm for 3 min. The supernate was removed and 5 ml culture mediums were added for resuspension. Cells were inoculated in a 48-well plate by 500 ul/well at the concentration of 3×10^4/ml and then incubated under 5% CO2, 37° C. for 24 hours. The supernate was removed and a culture medium containing polypeptide (Zn^2+ in the culture medium was present at the concentration of 17.39 μmol/L) was added for further incubation for 48 hours. Supernate in each well was carefully removed. The well was gently washed by PBS once in an amount of 450 μl/well. 450 μl MTT culture mediums were added into each well for further cultivation for 4 hours. The supernate was carefully discarded. DMSO was added in an amount of 450 μl/well and then the plate was placed in a shaking bed for oscillation for 10 min in dark. 150 μl supernates were transferred to a 96-well ELISA plate and absorbance value of each well was detected at 490 nm and 570 nm by the microplate reader.

tumor cell HepG2 = type: cell-based
Protocol: as §1

| Molecule | Tumor inhibitor rate (%) [1] | toxic reaction ([1]; BEL7404 model, same regimens) | Cell Survival (%), 1 mg/ml of polypeptide, HUVEC [2] | biological activity compared with P2 [2] | Cell Survival (%), 1 mg/ml of polypeptide, HepG2 (tumor cell HepG2; 1) | IC50 (ug/ml) HUVEC [2] | reduction of IC50 concentration as compared to that of P2 ([2]; HUVEC and HepG2) | IC50 (ug/ml) HepG2 (tumor cell HepG2) | Cell Survival (%), 1 mg/ml of polypeptide, HepG2 (tumor cell HepG2; 1 mg/ml) |
| --- | --- | --- | --- | --- | --- | --- | --- | --- | --- |
| O=P1(N(CCCl)CCCl)NCCCO1 (stereo not drawn) [CTX, Cyclophosphamide, reference compound] | 68.0% | typical chemotherapeutic toxic side effect |  |  |  |  |  |  |  |
| CC[C@H](C)[C@H](NC(=O)CNC(=O)[C@H](CCCNC(=N)N)NC(=O)[C@H](CCSC)NC(=O)CNC(=O)CNC(=O)[C@H](CO)NC(=O)[C@H](CC(C)C)NC(=O)[C@H](CO)NC(=O)[C@H](CO)NC(=O)[C@H](CC(N)=O)NC(=O)[C@H](CC(C)C)NC(=O)[C@H](C)NC(=O)[C@@H](NC(=O)[C@H](CC(C)C)NC(=O)[C@H](Cc1c[nH]cn1)NC(=O)[C@H](CC(C)C)NC(=O)[C@@H](NC(=O)[C@@H]1CCCN1C(=O)[C@H](CCC(N)=O)NC(=O)[C@H](Cc1ccccc1)NC(=O)[C@H](CC(=O)O)NC(=O)[C@H](CCCNC(=N)N)NC(=O)[C@H](Cc1c[nH]cn1)NC(=O)[C@H](CO)NC(=O)[C@H](Cc1c[nH]cn1)NC(C)=O)C(C)C)C(C)C)C(=O)N[C@@H](CCCNC(=N)N)C(=O)NCC(=O)N[C@@H](C)C(=O)N[C@@H](CC(=O)O)C(N)=O [Polypeptide P2S18] (Ac-HSHRDFQPVLHLVALNSSLSGGMRGIRGAD-NH2) |  |  | 73% | lower biological activity than P2 | 70% |  |  |  |  |
| CC[C@H](C)[C@H](NC(=O)CNC(=O)[C@H](CCCNC(=N)N)NC(=O)[C@H](CCSC)NC(=O)CNC(=O)CNC(=O)[C@H](CO)NC(=O)[C@H](CC(C)C)NC(=O)[C@H](CC(N)=O)NC(=O)[C@H](CO)NC(=O)[C@H](CC(N)=O)NC(=O)[C@H](CC(C)C)NC(=O)[C@H](C)NC(=O)[C@@H](NC(=O)[C@H](CC(C)C)NC(=O)[C@H](Cc1c[nH]cn1)NC(=O)[C@H](CC(C)C)NC(=O)[C@@H](NC(=O)[C@@H]1CCCN1C(=O)[C@H](CCC(N)=O)NC(=O)[C@H](Cc1ccccc1)NC(=O)[C@H](CC(=O)O)NC(=O)[C@H](CCCNC(=N)N)NC(=O)[C@H](Cc1c[nH]cn1)NC(=O)[C@@H](NC(=O)[C@H](Cc1c[nH]cn1)NC(C)=O)[C@@H](C)O)C(C)C)C(C)C)C(=O)N[C@@H](CCCNC(=N)N)C(=O)NCC(=O)N[C@@H](C)C(=O)N[C@@H](CC(=O)O)C(N)=O [Polypeptide P2T2N18] (Ac-HTHRDFQPVLHLVALNSNLSGGMRGIRGAD-NH2) |  |  | 3% | obviously higher than that of P2 | 7% | 71.4 µg/mL (≈ 21.6 µM) | about 10 folds | 187.9 µg/mL (≈ 56.8 µM) |  |
| B1 | 28.5% |  | 82% |  |  |  |  |  | 91% |
| B2 | 41.2% |  | 70% |  |  |  |  | 2245.4 µg/mL | 64% |
